The values below come from US5641666A, “Soraphen A resistant fungi and acetyl-CoA carboxylase” (priority 1993, dated 1997).

Values after ≈ are worked out from the molar mass of the structure shown.

Assay [1] deals with strains YS 18 and YHV 18 (culture A). The experiment in a line: Plating of culture A on YPD-SOR-10. Format: cell-based, Saccharomyces cerevisiae. Conditions: 10 μg/ml soraphen A, 30° C., 3 days. On the procedure:
YPD-SOR-10 is YPD medium supplemented with 10 μg/ml soraphen A.
Each of the isogenic strains YS 18 and YHV 18 is grown in 5 ml of YPD to late exponential phase. The culture is diluted 10^4 fold to give culture A the viable cell number of which is determined. Twenty tubes each containing 5 ml of YPD are inoculated with 10 μl of culture A, which corresponds to about 10 cells, and are incubated at 28° C. until a density of 10^7 cells/ml is attained. 1 ml aliquots of each of the tubes are plated on YPD-SOR-10 and the plates are incubated at 30° C. for 3 days. To ensure isolation of independent mutants from each of the 20 YPD-SOR-10 plates only colonies with different shape or sizes are selected. Mutant colonies are restreaked twice on YPD before storing them as glycerol stock cultures at -70° C.
To exclude the presence of soraphen A resistant routants at the beginning of the cultivation of culture A, the remainder of culture A is plated on YPD-SOR-10 and incubated at 30° C. for 3 days.

Assay [2] deals with acetyl-CoA carboxylase. Conditions: cited from earlier work.
Assay [3] concerns diploids from the backcrosses of soraphen A resistant yeast strains. The experiment in a line: Determination of the minimal inhibitory concentration (MIC) on YPD-SOR plates, diploids from backcrosses of soraphen A resistant strains. Format: cell-based, Saccharomyces cerevisiae. Conditions: diploids from backcrosses vs wild-type. On the procedure: In a first step all of the mutants are backcrossed with the wild-type strain of the opposite mating type, the diploid strains are sporulated and the asci are subjected to tetrad analysis. From each cross at least six complete tetra are examined and all of them are found to segregate 2:2 for soraphen A resistance and soraphen A sensitivity. This indicates mutations at a single genetic locus.
In another step the MIC of the dipbids from the backcrosses is determined.
Yeast colonies are grown for 2 days at 30° C. on a YPD plate and replica pated on a set of YPD-SOR plates. The following soraphen A concentrations are used: 0 μg/ml, 0,35 μg/ml, 0,76 μg/ml, 1,5 μg/ml, 3,13 μg/ml 6,7 μg/ml, 15,45 μg/ml and 54,5 μg/ml. After growth for 24 hours at 30° C. the plates are inspected for growth.

In assay [4] the test system is bacteria. Conditions: cited from earlier work.
Assay [5] relates to fungi. Conditions: cited from earlier work.
Assay [6] concerns YS 18 yeast cells. The experiment in a line: Growth curves of yeast in liquid YPD medium with soraphen A (OD600, viable cell titer). Format: cell-based, Saccharomyces cerevisiae. On the procedure: Saccharomyces cerevisiae strain YS 18 (MATeα; his 3-11, 3-15; leu 2-3, 2-112; ura 3-Δ5; can^R; cir^+) is chosen as the wild-type. YHV 18 (MATa; his 3-11, 3-15; leu 2-3, 2-112; ura 3-Δ5; canst; cir^+) is isolated after a mating type switch of YS 18 and is therefore isogenic.
100 ml YPD medium in a 500 ml flask is inoculated with about 10^7 YS 18 yeast cells/ml and incubated for growth at 180 rpm at 30° C. Before the addition of soraphen A at time point 0, the cells have already been incubated for 1 hour. The control is treated identically, but receives no soraphen A. Total cell numers are monitored by measuring the OD600. The number of viable cells called the […] is determined by plating on YPD plates. The number of soraphen A resistant cells is counted by plating on YPD-SOR plates containing the same soraphen A concentration as in the flask.

`COC1/C=C/C(C)C2OC(O)(C(C)C(=O)OC(c3ccccc3)CCCCC1OC)C(OC)C(O)C2C` (centres unmarked) [soraphen A]: the growth of colonies result in assay [1] is on record as “No growth of colonies is observed”. Also, the “interference with acetyl-CoA carboxylase” value in assay [2] is listed as “shown to interfere with acetyl-CoA carboxylase”. For the same molecule, in assay [3], the “sensitivity of the diploids compared with the wild-type strain” value is “None of the diploids is as sensitive to soraphen A as the wild-type strain”. In assay [4], the effect on bacteria result is “without effect on bacteria”. The “activity as a fungicide” value in assay [5] is on record as “strong activity as a fungicide”. Also, in assay [6] (Saccharomyces cerevisiae, YS 18 wild-type, YPD, 30° C., 180 rpm, read-out: minimal inhibitory concentration (MIC) as determined from the growth curves), the MIC was 0.1 µg/mL (≈ 0.192 µM). Further, the “duration of complete inhibition of growth” value in assay [6] (YS 18, YPD, 30° C., thereafter growth recovers due to soraphen A resistant mutants) is given as “approximately 40 hours”. Further, in assay [6] (YS 18, during the first 20 hours), the “cell killing (viable cell counts)” value is reported as “extensive cell killing occurs”.
